Like-named read-outs stand apart in the source and are kept apart here.
Assays:
[1] = tested on: adult patients with uncontrolled gout; conditions: human, in vivo
[2] = tested on: patients with refractory chronic gout; experiment: Prior Phase 3 / pre-marketing pegloticase monotherapy trials (C0405 and C0406): response, infusion reactions, antibodies, PK; type: in vivo, human
Experimental: Improvements were more rapid in patients who received pegloticase 8 mg every 2 weeks compared to every 4 weeks and met the outcomes data of complete resolution of at least 1 tophus with no new or progressive tophi as assessed by blinded assessment of digital photographs of target tophi.
During the second 3 months of treatment, a lower proportion of pegloticase-treated patients experienced flares than patients receiving placebo. The incidence of flares during this period was lowest in the group receiving pegloticase 8 mg every 2 weeks than in the group who received pegloticase 8 mg every 4 weeks, as was the incidence of infusion-related reactions (26% with biweekly dosing vs. 40% with the every-4-week dosing regimen). Both infusion reactions (IRs) and gout flares were least common in patients with sustained urate-lowering responses to treatment and those who received bi-weekly treatment. In most pegloticase-treated patients with IRs, a loss of response to pegloticase (return to SUA >6 mg/dL) preceded the time of the first IR ( 20/21; 95%).
A relationship between the loss of urate-lowering efficacy, incidence of IRs, and high-titer antibody formation was identified in a post-hoc analysis of the pooled data from the Phase 3 studies. […] In one study, 69 (41%) of 169 patients receiving pegloticase developed high titer anti-pegloticase antibodies and subsequently lost response to the drug. In a second study, only 1 of 52 participants with high antibody titers maintained a response to pegloticase (serum urate <6 mg/dL). In addition, 60% participants with high titers developed IR. Anti-pegloticase antibodies were largely directed to the polyethylene glycol (PEG) portion of the molecule and altered the pharmacokinetic clearance of pegloticase, resulting in inhibition of SUA lowering activity. […] In addition, 31 of 52 (60%) patients with titers exceeding 1:2430 developed IRs. […] By preventing the formation of anti-pegloticase antibodies, a tolerizing dose regimen should prevent loss of response to the drug and decrease the incidence of IRs associated with it.
An AE that was not an unexpected AE was an infusion reaction and rarely anaphylaxis. Safety assessments in this study include an evaluation of the frequency and severity of IRs and anaphylaxis. During pre-marketing controlled clinical trials, infusion reactions were reported in 26% of patients treated with pegloticase 8 mg every 2 weeks. During pre-marketing controlled clinical trials, anaphylaxis was reported with a frequency of 6.5% of patients treated with pegloticase. For the purposes of this study, these events shall be defined as follows: […]
Methods: In the MIRROR OL trial, MTX (15 mg/week) was given orally 4 weeks prior to the first pegloticase dose and continued weekly, in combination with pegloticase 8 mg given intravenously every 2 weeks, for a treatment duration of up to 52 weeks. Pre-infusion samples were collected to measure MTX-PGs 1 to 5 in red blood cells at day 1, week 4, 8, 22, 24 and 36. […] Pegloticase concentrations in serum was measured using a validated enzymatic/fluorescence assay. The limit of quantification is 0.6 μg/mL. Anti-pegloticase/PEG IgG antibodies (ADA) were measured using a validated enzyme linked immunosorbent assay (ELISA). The analysis of MTX Polyglutamates was conducted by Exagen. The impact of MTX on pegloticase PK was evaluated by two methods: (1) Comparing pegloticase exposures (median Cmax and Cmin across visits) with MTX from the MIRROR OL trial to the observed levels in historical monotherapy Phase 3 studies (C0405 and C0406) (Lipsky et al., Arthritis Res Ther 16(2), 2014; Sundy et al., JAMA 306(7), 2011). Overlaying observed pegloticase concentrations with MTX against the 90% prediction band of pegloticase concentrations following monotherapy based on the population PK model from the Phase 3 data (Yue et al., ASCPT. Atlanta, 2010).

Row | Molecule | Number of gout flares among subjects with at least one gout flare, Mean (SD) [1] | Number of gout flares among subjects with at least one gout flare, Median [1] | Any Gout Flares Since the Last Visit, % ([1]; 1 day) | Maximum Reported Intensity of Flare (0-10 scale), Mean ([1]; 1 day) | Maximum Reported Intensity of Flare (0-10 scale), Median ([1]; 1 day) | Maximum Reported Intensity of Flare (0-10 scale), Min, Max ([1]; 1 day) | Pain at rest > 3 out of 10, % ([1]; 1 day) | Pain different than normal, % ([1]; 1 day) | Swelling in Joints, % ([1]; 1 day) | Maximum Reported Intensity of Flare (0-10 scale), Median ([1]; -4 week) | Maximum Reported Intensity of Flare (0-10 scale), Min, Max ([1]; -4 week) | Cmax, Median (Q1, Q3) ([2]; BQL: below 0.6 μg/mL) | Cmin, Median (Q1, Q3) ([2]; BQL: below 0.6 μg/mL) | Cmax BQL, % ([2]; Quantitation Limit 0.6 μg/mL) [%] | Cmax BQL, n/N ([2]; Quantitation Limit 0.6 μg/mL) | Cmin BQL, % ([2]; Quantitation Limit 0.6 μg/mL) [%] | Cmin BQL, n/N ([2]; Quantitation Limit 0.6 μg/mL)
1 | CN(Cc1cnc2nc(N)nc(N)c2n1)c1ccc(C(=O)N[C@@H](CCC(=O)O)C(=O)O)cc1 [MTX, methotrexate] | 1.2 | 1.0 | (57.1) % | 5.8 | 5.5 | 4, 8 | (57.1) % | (50.0) % | (42.9) % | 8.0 | 7, 10 | – | – | – | – | – | –
2 | pegloticase | – | – | – | – | – | – | – | – | – | – | – | 1.51 (BQL, 2.48) μg/mL | BQL (BQL, BQL) | 29 | 25/85 | 77 | 63/82
